Counter-ions that a name gives are not always drawn.
Columns and labels:
[1] = design: method as in PMID 8832487, PMID 10052856; settings: isolated perfused rat kidney, secretory transport; cited from earlier work
BCRP = biological target: T1, BCRP (Homo sapiens, UniProt Q9UNQ0); assay: Membrane vesicle transport inhibition assay: BCRP-mediated [3H]-E1S uptake
T1 sequence (Q9UNQ0 1-655): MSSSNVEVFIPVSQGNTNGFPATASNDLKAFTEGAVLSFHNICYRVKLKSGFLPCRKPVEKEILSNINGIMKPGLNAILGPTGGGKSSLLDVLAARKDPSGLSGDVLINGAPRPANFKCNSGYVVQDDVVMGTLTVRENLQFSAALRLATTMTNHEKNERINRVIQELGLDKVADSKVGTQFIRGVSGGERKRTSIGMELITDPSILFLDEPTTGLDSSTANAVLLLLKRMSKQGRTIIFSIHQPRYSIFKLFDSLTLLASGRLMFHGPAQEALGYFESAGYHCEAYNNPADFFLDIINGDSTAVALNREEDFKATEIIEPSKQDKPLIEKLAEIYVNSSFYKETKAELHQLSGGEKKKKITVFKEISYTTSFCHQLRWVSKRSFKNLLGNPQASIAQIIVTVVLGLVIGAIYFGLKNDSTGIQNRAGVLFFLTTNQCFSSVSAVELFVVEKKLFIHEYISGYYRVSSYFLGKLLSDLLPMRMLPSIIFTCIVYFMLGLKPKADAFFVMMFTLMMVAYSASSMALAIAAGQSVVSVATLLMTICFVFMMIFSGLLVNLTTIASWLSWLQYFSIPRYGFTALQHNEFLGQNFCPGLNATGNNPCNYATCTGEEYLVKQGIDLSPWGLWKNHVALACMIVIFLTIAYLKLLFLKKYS
Description: (§1) Human embryonic kidney (HEK293; purchased at American Type Culture Collection, Manassas, VA) cells were cultured in Dulbecco's modified Eagle's medium (Invitrogen life sciences, Breda, the Netherlands) containing 10% (v/v) fetal calf serum (MP Biomedicals, Uden, the Netherlands) at 37°C in a 5% (v/v) CO2 atmosphere. To functionally overexpress MRP4 and BCRP, HEK293 cells were transduced with baculoviruses of human MRP4, BCRP or enhanced yellow fluorescent protein (EYFP), generated via the Bac-to-Bac system (Invitrogen) as previously described. To transduce HEK293 cells, they were cultured in 500 cm^2 flasks until 70% confluence. Subsequently, medium was removed and 10 ml of virus and 25 ml of medium were added and incubated for 30 min at 37°C. Next, 50 ml of medium was added and after 2 h of transduction 5 mM sodium butyrate was added.
(§2) Three days after transduction, cells were harvested and pelleted by centrifugation (30 min at 4,000 x g). Afterwards, the cells were resuspended in ice-cold hypotonic TS buffer (0.5 mM sodium phosphate, 0.1 mM EDTA, pH 7.0) containing protease inhibitors (100 µM phenylmethylsulfonyl fluoride, 5 µg/ml aprotinin, 5 µg/ml leupeptin, 1 µg/ml pepstatin and 1 µg/ml E-64) and shaken for 30 min at 4°C. Cells were then centrifuged at 100,000 x g for 30 min at 4°C. Subsequently, pellet was resuspended in ice-cold isotonic buffer (10 mM Tris-HEPES and 250 mM sucrose, pH 7.4, adjusted with HEPES) supplemented with protease inhibitors and homogenized using a tight fitting Dounce homogenizer followed by centrifugation (1,000 x g, 20 min, 4°C). Afterwards, supernatant was centrifuged at 100,000 x g for 1 h at 4°C. The resulting pellet was resuspended in isotonic buffer and passed through a 27-gauge needle 25 times to obtain crude membrane vesicles. The protein content of samples was determined using the Bio-Rad protein assay (Veenendaal, the Netherlands), according to manufacturers recommendations. Vesicles were frozen in liquid nitrogen and stored at −80°C until use. The orientation of the membrane vesicles was not determined, since ATP-dependent uptake occurs only in inside-out vesicles.
(§3) A rapid filtration technique was used to study the uptake of [^3H]-MTX and [^3H]-E1S into MRP4 or BCRP membrane vesicles, as previously described. In short, 25 µl of TS buffer containing 4 mM ATP, 10 mM MgCl2 and radiolabeled substrate was added to 5 µl of the membrane vesicles (1.5 mg/ml). The transport assay was performed in the absence or presence of various concentrations of uremic toxins to evaluate the inhibitory effects of these compounds on MRP4-mediated [^3H]-MTX uptake and BCRP-mediated [^3H]-E1S uptake. […] Uptake was stopped by placing the samples on ice and the addition of 150 µl ice cold TS buffer. Subsequently, the samples were transferred to a 96 well filter plate (Millipore, Etten-leur, the Netherlands) pre-incubated with TS buffer and filtered using a Multiscreen HTS-Vacuum Manifold filtration device (Millipore). Afterwards, 2 ml of scintillation liquid was added to each filter and radioactivity was determined using liquid scintillation counting. As negative controls ATP was substituted for AMP and EYFP-membrane vesicles were used. Each experiment was performed in triplicates.
(§4) Statistics were performed using GraphPad Prism 5.02 via an unpaired t test or a Kruskal-Wallis test followed by a Dunn's Multiple Comparison test. Differences between groups were considered to be statistically significant when p<0.05. The mean IC50 and IC20 values were calculated from the inhibition curves used for the Dixon analysis and to determine the inhibition constant (Ki) from the Dixon plots. Transport inhibition studies were performed in triplicate and repeated at least three times.

MRP4 = biological target: T2, MRP4 (Homo sapiens, UniProt O15439); assay: Membrane vesicle transport inhibition assay: MRP4-mediated [3H]-MTX uptake
T2 sequence (O15439 1-1325): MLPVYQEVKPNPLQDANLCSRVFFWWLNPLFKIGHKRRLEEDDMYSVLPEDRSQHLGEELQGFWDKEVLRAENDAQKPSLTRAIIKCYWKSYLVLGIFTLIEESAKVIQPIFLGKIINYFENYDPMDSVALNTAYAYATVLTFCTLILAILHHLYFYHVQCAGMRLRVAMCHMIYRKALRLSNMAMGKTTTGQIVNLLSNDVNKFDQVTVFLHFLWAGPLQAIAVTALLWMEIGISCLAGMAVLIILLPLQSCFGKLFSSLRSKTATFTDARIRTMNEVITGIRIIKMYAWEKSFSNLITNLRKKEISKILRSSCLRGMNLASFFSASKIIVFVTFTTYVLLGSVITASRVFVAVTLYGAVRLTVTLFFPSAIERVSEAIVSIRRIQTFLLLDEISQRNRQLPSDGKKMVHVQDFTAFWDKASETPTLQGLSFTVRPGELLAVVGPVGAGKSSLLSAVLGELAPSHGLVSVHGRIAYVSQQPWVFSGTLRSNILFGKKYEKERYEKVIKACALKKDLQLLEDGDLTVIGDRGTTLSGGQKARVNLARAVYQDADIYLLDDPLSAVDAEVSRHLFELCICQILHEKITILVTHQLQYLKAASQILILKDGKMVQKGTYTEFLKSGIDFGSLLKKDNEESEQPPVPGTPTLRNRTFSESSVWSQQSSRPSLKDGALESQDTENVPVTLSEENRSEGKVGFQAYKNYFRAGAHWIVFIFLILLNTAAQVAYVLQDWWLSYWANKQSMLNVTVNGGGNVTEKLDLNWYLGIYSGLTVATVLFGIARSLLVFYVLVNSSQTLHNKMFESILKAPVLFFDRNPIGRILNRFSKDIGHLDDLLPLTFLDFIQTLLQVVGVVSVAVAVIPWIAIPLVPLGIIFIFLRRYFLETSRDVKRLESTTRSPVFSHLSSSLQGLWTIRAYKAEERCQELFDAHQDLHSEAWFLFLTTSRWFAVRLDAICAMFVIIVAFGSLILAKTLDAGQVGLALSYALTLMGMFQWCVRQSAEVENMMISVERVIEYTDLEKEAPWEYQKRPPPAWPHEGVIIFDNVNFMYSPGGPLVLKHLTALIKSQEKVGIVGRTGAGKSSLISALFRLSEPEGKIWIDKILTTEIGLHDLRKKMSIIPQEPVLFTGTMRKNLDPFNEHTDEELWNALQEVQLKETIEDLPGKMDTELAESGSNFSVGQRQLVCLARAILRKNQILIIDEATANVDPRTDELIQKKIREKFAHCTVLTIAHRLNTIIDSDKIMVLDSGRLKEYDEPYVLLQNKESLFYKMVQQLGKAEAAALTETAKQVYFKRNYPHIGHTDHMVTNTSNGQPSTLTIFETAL
Description: as §1
as §2, with “Subsequently, pellet was resuspended in ice-cold isotonic buffer (10 mM Tris-HEPES and 250 mM sucrose, pH 7.4, adjusted with HEPES) supplemented with protease inhibitors and homogenized using a tight fitting Dounce homogenizer followed by centrifugation (1,000 x g, 20 min, 4°C).” left out, “The resulting pellet was resuspended in isotonic buffer and passed through a 27-gauge needle 25 times to obtain crude membrane vesicles.” left out
as §3
as §4, with “Differences” for “Statistics were performed using GraphPad Prism 5.02 via an unpaired t test or a Kruskal-Wallis test followed by a Dunn's Multiple Comparison test. Differences”

Cc1ccccc1C(=O)NCC(=O)O [2-methyl hippuric acid]
Level in kidney tissue compared to the perfusate [1]: 175 times

Cc1ccc(C(=O)NCC(=O)O)cc1 [4-methyl hippuric acid]
Level in kidney tissue compared to the perfusate [1]: 600 times

N.[3H]C1c2cc(OS(=O)(=O)O)ccc2[C@H]2CC[C@]3(C)C(=O)CC[C@H]3[C@@H]2C1[3H] (stereo partly drawn) [[^3H]-E1S, [6′,7′-^3H(n)]-estrone-sulfate ammonium salt, reference compound]
ATP-dependent uptake compared to EYFP controls (BCRP; BCRP-overexpressing vesicles vs EYFP controls): 24 fold | ATP-dependent uptake, average rate (BCRP; BCRP-overexpressing vesicles, no inhibitor): 15.5 pmol/mg/min

CN(Cc1cnc2nc(N)nc(N)c2n1)c1ccc(C(=O)N[C@@H](CCC(=O)O)C(=O)O)cc1 [[^3H]-MTX, [3′,5′,7′-^3H(n)]-methotrexate disodium salt, reference compound]
ATP-dependent uptake compared to EYFP vesicles (MRP4; MRP4-overexpressing vesicles vs EYFP vesicles): 11 fold | ATP-dependent uptake, average rate (MRP4; MRP4-overexpressing vesicles, no inhibitor): 1.3 pmol/mg/min

Source: PMC3070735, “Uremic Toxins Inhibit Transport by Breast Cancer Resistance Protein and Multidrug Resistance Protein 4 at Clinically Relevant Concentrations” (PLoS ONE, 2011)
